Experimental data published in ChEMBL document CHEMBL1125402, “Conformational effects on the activity of drugs. 13. A revision of previously proposed models for the activation of alpha- and beta-adrenergic receptors” (J Med Chem, 1992).

What was measured:
[1] = molecular target: T1, Adrenergic receptor alpha-2 (Homo sapiens) (UniProt P08913+P18825+P18089); assay: Intrinsic activity was expressed as the ratio between maximal response elicited by compound and that elicited by full agonist NE towards alpha-2 adrenergic receptor of isolated guinea pig ileum; assay type: functional, tissue-based; conditions: Cavia porcellus
[2] = molecular target: T1, Adrenergic receptor alpha-2 (Homo sapiens); assay: Compound was evaluated for alpha adrenoceptor agonistic activity towards alpha-2 adrenergic receptor of isolated guinea pig ileum; assay type: functional, tissue-based; conditions: Cavia porcellus, target entry is the homologue from another species
[3] = molecular target: T2, Adrenergic receptor alpha-1 (Rattus norvegicus, UniProt P15823+P23944+P43140); assay: Binding affinity towards Alpha-1 adrenergic receptor of rat brain
T2 sequence (P15823 whole entry): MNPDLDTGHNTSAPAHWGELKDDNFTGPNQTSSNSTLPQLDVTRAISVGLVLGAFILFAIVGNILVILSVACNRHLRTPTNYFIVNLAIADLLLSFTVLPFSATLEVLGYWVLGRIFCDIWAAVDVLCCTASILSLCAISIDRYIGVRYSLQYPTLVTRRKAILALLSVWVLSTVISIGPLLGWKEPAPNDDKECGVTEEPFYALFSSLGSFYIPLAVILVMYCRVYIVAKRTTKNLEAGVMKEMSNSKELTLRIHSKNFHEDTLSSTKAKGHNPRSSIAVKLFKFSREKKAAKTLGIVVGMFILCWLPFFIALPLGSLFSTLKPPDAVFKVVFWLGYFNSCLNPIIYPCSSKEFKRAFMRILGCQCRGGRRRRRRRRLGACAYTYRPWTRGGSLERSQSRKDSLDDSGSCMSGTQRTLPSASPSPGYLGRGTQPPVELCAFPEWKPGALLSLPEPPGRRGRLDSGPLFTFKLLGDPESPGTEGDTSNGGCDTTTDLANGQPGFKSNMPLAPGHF
T2 sequence (P23944 whole entry): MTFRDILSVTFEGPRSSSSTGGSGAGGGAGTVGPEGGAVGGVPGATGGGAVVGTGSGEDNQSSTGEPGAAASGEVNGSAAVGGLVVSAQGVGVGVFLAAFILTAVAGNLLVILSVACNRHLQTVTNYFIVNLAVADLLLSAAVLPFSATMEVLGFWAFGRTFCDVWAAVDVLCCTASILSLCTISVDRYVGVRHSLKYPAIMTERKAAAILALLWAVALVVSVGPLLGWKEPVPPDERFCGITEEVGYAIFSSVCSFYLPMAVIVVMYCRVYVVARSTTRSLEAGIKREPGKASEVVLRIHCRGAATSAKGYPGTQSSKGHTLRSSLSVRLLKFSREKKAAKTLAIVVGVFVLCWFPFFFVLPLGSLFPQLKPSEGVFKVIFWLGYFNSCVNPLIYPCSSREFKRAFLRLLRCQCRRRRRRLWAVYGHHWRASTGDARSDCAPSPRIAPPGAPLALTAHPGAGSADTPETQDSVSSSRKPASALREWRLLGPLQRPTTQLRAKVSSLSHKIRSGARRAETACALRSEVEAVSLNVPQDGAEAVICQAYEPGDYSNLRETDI
T2 sequence (P43140 whole entry): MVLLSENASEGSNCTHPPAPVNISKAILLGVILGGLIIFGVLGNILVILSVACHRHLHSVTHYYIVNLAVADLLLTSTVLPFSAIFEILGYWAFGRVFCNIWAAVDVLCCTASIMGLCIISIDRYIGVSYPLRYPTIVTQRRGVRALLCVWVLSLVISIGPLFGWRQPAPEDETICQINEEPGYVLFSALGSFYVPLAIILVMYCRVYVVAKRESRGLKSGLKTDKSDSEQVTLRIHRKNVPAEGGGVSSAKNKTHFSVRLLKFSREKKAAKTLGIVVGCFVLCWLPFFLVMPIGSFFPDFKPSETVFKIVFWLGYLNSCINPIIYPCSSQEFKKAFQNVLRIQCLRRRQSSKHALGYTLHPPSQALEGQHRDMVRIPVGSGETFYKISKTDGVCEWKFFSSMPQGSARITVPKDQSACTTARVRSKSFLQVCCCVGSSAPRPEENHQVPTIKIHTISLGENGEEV

[4] = Compound was evaluated for Alpha-1 adrenergic receptor agonistic activity towards alpha 1 receptor of isolated rabbit aortic strips; assay type: functional, Oryctolagus cuniculus
[5] = molecular target: T3, Adrenergic receptor alpha-2 (Rattus norvegicus, UniProt P22086+P19328+P22909); assay: Binding affinity towards alpha-2 adrenergic receptor of rat brain
T3 sequence (P22086 whole entry): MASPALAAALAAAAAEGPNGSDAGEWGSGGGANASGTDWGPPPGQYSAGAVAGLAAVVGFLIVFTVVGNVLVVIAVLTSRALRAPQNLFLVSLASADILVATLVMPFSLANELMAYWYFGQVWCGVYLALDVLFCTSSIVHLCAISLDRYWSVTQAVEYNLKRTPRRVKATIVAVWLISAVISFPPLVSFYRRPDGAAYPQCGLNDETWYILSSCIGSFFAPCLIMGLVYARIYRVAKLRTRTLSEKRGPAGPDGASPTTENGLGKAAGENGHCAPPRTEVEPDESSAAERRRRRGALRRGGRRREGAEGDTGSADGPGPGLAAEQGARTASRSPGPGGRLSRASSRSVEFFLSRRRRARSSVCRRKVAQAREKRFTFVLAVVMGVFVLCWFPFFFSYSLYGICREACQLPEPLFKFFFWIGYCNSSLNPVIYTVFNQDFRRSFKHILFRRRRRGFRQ
T3 sequence (P19328 whole entry): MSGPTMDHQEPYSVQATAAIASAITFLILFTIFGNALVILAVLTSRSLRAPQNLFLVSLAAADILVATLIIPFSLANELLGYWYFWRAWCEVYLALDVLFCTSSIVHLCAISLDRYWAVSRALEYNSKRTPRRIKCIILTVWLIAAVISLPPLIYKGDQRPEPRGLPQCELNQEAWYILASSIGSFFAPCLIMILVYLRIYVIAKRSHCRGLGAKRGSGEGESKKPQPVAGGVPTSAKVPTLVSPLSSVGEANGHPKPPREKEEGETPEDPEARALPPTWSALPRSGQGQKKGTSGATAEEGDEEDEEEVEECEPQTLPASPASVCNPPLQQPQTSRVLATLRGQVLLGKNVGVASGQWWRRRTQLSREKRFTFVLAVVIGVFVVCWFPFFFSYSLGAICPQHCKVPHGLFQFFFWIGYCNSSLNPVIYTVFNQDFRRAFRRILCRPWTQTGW
T3 sequence (P22909 whole entry): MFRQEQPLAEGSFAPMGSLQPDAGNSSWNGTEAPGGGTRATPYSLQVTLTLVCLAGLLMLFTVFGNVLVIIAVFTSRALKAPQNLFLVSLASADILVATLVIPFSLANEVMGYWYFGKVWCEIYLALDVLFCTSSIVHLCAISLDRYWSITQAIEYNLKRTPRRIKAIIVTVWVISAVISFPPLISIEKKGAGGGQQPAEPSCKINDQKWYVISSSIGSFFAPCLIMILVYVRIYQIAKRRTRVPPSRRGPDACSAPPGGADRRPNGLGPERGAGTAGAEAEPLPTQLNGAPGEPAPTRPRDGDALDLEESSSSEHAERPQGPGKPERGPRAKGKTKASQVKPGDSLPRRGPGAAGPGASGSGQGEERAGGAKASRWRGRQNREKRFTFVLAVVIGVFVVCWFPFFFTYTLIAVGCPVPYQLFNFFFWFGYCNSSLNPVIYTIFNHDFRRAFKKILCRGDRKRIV

[6] = molecular target: Beta-1 adrenergic receptor (Cavia porcellus) (UniProt B0FL73); assay: Compound was evaluated for beta adrenoceptor agonistic activity towards Beta-1 adrenergic receptor of isolated guinea pig atria (exp 1); assay type: functional
Sequence of Beta-1 adrenergic receptor (Cavia porcellus) (B0FL73 1-467): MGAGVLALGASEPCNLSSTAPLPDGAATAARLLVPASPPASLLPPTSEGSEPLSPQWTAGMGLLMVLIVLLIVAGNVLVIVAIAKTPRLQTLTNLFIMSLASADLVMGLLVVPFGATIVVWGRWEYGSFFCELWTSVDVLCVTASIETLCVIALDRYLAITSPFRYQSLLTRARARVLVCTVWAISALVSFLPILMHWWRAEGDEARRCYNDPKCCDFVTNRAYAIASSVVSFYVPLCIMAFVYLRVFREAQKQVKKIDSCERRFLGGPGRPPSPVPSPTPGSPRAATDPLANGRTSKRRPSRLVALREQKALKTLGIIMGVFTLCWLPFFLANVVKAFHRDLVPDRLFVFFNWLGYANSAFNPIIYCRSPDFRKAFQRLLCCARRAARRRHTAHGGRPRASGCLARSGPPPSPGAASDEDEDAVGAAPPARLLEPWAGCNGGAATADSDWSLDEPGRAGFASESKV

[7] = molecular target: Beta-2 adrenergic receptor (Bos taurus, UniProt Q28044); assay: Compound was evaluated for beta adrenergic binding affinity towards Beta-2 adrenergic receptor of bovine lung
Sequence of Beta-2 adrenergic receptor (Q28044 whole entry): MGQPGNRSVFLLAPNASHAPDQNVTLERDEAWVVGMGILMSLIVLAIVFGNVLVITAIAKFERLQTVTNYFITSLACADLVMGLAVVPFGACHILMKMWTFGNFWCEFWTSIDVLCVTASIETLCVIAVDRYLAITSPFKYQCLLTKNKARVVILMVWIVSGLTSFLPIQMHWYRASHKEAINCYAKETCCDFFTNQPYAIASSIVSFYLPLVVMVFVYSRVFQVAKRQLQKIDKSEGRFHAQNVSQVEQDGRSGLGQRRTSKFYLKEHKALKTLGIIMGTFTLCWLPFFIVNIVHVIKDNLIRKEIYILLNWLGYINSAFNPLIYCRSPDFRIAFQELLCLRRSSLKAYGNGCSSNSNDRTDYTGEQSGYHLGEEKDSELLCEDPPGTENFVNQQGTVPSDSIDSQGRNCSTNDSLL

[8] = molecular target: Beta-1 adrenergic receptor (Cavia porcellus) (UniProt B0FL73); assay: Intrinsic activity was expressed as the ratio between maximal response elicited by compound and that elicited by full agonist ISO towards beta 1 receptor of isolated guinea pig atria; assay type: functional
[9] = molecular target: Beta-1 adrenergic receptor (Rattus norvegicus, UniProt P18090)
Sequence of Beta-1 adrenergic receptor (P18090 whole entry): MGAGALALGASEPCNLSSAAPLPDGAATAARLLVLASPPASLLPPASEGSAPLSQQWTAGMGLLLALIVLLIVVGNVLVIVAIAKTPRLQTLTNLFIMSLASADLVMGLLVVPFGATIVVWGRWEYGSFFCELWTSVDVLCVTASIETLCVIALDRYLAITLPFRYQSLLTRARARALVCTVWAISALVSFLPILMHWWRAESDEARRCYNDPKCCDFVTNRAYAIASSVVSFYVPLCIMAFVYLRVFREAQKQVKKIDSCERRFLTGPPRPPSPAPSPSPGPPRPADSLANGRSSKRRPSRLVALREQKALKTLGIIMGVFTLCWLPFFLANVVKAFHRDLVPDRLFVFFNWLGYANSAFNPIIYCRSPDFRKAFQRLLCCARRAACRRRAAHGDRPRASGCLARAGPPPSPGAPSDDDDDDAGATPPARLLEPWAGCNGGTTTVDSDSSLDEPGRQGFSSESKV
Description: Compound was evaluated for beta adrenergic binding affinity towards Beta-1 adrenergic receptor of rat brain

[10] = molecular target: Beta-1 adrenergic receptor (Cavia porcellus) (UniProt B0FL73)
Description: Compound was evaluated for beta adrenoceptor agonistic activity towards Beta-1 adrenergic receptor of isolated guinea pig atria (exp 2)

[11] = molecular target: Beta-2 adrenergic receptor (Cavia porcellus) (UniProt Q8K4Z4)
Sequence of Beta-2 adrenergic receptor (Cavia porcellus) (Q8K4Z4 whole entry, looked up): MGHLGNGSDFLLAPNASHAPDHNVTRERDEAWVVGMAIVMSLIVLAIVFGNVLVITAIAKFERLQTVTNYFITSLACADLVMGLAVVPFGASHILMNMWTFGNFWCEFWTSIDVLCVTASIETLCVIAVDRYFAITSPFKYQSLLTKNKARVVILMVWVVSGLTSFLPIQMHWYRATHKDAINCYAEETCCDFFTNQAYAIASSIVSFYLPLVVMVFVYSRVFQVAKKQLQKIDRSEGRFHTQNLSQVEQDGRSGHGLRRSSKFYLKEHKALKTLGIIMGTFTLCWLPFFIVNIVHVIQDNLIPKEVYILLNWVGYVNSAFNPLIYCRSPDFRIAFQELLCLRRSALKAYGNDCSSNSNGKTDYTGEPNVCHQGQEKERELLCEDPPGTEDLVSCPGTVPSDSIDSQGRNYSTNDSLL
Description: Compound was evaluated for beta adrenoceptor agonistic activity towards Beta-2 adrenergic receptor of isolated guinea pig tracheal strip (exp 2)

[12] = molecular target: Beta-2 adrenergic receptor (Cavia porcellus) (UniProt Q8K4Z4); remark: listed apart in the source
Description: Compound was evaluated for beta adrenoceptor agonistic activity towards Beta-2 adrenergic receptor of isolated guinea pig tracheal strip (exp 1)

CC(C)N[C@@H]1CCc2c(ccc(O)c2O)[C@H]1O
Intrinsic activity [1]: 0.72
pD2 [2]: 5.6
Ki [3]: > 100000 nM
pD2 [4]: <3.5
Ki [5]: 5800 nM
pD2 [6]: 6.72
Ki [7]: 62 nM
Intrinsic activity [8]: 1
Ki [9]: 760 nM
pD2 [10]: 7.56
pD2 [11]: 8.41
pD2 [12]: 8.06
